# Test results from publication PMC5854716, “Synthesis, molecular docking, ctDNA interaction, DFT calculation and evaluation of antiproliferative and anti-Toxoplasma gondii activities of 2,4-diaminotriazine-thiazole derivatives” (Medicinal Chemistry Research, 2018).
# How the values were obtained:
# VERO cells = experiment: Cell viability assay (MTT), VERO; assay type: cell-based, Cercopithecus aethiops; conditions: 24 h; for CC30 VERO: concentration for 30% proliferation inhibition
# Method: (§1) The epithelial cell line VERO (ATCC-Catalog No. CCL-81^TM), derived from the kidney of the African green monkey, Cercopithecus aethiops and fibroblast cell line L-929 (ATCC-Catalog No. CCL-1^TM), derived from Mus musculus (http://www.atcc.org) were grown in Iscoves’s Modified Dulbecco’s Medium (IMDM) supplemented with 10% (v/v) fetal bovine serum (FBS), plus 2 mM L-glutamine, 100 U/ml penicillin, 100.00 µg/ml streptomycin, 5 × 10^−5 M 2-mercaptoethanol and maintained at 37 °C in a 10% CO2 atmosphere. Subcultures were performed via enzymatic cell dissociation in 0.25% trypsin. After dissociation, the cells were placed in culture medium at 4 °C with 10% FBS to inhibit the action of trypsin. The isolated cells were centrifuged for 10 min at 1000×g at 4 °C, and the cells were grown in new bottles. This procedure was repeated when cells reached a confluence of ~90%. All commercial reactants and solvents were purchased from either Sigma-Aldrich Laborchemikalien GmbH (Dzitko et al. [2014]).
# (§2) Suspensions of the compounds 4a–l were freshly prepared (5 mg/ml DMSO) before the cells were exposed, and diluted to appropriate concentrations; 0.9, 1.8, 3.9, 7.8, 15.6, 31.2, 62.5, and 125.00 μg/ml with the culture medium. Cells treated with 2.5% DMSO-solvent served as a control in each experiment.
# (§3) The effects of tested compounds on the viability of mouse fibroblasts L929 and […] VERO cells were evaluated using the MTT assay. The MTT assay was used according to international standards: ISO 10993-5:2009 (Tests for in vitro cytotoxicity; http://www.iso.org/iso/catalogue_detail.htm? csnumber = 36406). L929 and VERO cells were plated into 96-well plates at a density of 1.0 × 10^4/100 μl/well in culture medium and allowed to attach for 24 h before treatment. Afterwards, culture medium in the plates was replaced by 100 μl compounds suspension at concentration of 0–125 μg/ml and the cells were exposed for 24 h. Then 1 mg/ml MTT (50 μl/well) was added to each well and incubated at 37 °C, 10 % CO2 for 2 h. Mitochondrial dehydrogenases of viable cells reduce the yellowish water-soluble MTT to water-insoluble formazan crystals, which were solubilized with dimethyl sulfoxide (DMSO). The cell culture medium was aspirated cautiously, after which 150 μl DMSO was added to each well and mixed thoroughly. Optical density (OD) was read on the ELISA reader (Multiskan EX, Labsystems; http://www.mtxlsi.com/multiskan_EX.htm) at 550 nm. The results were expressed as percentage viability compared with the treated 2.5% DMSO controls. All experiments were performed in triplicate.
# [1] = system: Toxoplasma gondii BK strain; experiment: T. gondii tachyzoite intracellular proliferation in VERO host cells ([3H]uracil incorporation); assay type: cell-based; conditions: VERO host cells; for activity at 0.9 µg/mL / activity at 1.8 µg/mL / activity at 3.9 µg/mL / activity at 7.8 µg/mL / activity at 15.6 µg/mL / activity at 31.2 µg/mL / activity at 62.5 µg/mL / activity at 125 µg/mL / IC50: Toxoplasma gondii; for IC50: read-out: IC50 (50% inhibition of T. gondii proliferation in vitro)
# Method: as §1, §2
# Stock solutions of the Sulfadiazine (100 mg/ml 1 N NaOH; Catalog No. S8626) was freshly prepared before each experiment, and diluted to appropriate concentrations: 5.00, 25.00, 50.00, 125.00, 250.00, 500.00, 1250.00, and 2500.00 μg/ml, respectively in IMDM complete medium. All commercial reactants and solvents were purchased from either Sigma-Aldrich Laborchemikalien GmbH.
# Tachyzoites of T. gondii, BK strain, were maintained in female C57BL/6 (H-2^b) and BALB/c (H-2^d) mice (with genetically determined high and low susceptibility, respectively to Toxoplasma infection) via serial intraperitoneal inoculation of 10^5–10^6 parasites per mouse in phosphate-buffered saline (PBS). After 48 to 96 h, parasites were harvested via peritoneal lavage using PBS, pH 7.2, and centrifuged at 200×g for 5 min to remove blood cells and cell debris. The supernatant containing tachyzoites was collected and centrifuged again at 2000×g for 15 min. The final pellet was resuspended in IMDM, quantified in a Burker’s chamber, and used in experimental assays. Inbred mice were kept under standard laboratory conventional conditions. All experimental procedures were conducted according to guidelines of the 9. Local Ethics Commission for Experiments on Animals in Lodz.
# VERO, (2 × 10^4 cells/100 µl/well) were grown in complete medium (IMDM) on 96-well plates. After 24 h incubation, a medium was removed and then T. gondii […] tachyzoites, suspended in culture medium supplemented with 0.9–125.00 μg/ml diaminotriazines 4a–l and as a control-sulfadiazine (5.0–2500.0 μg/ml), were added (2 × 10^5 tachyzoites/200 µl/well) to the cell monolayers. After subsequent 48 h incubation 1 µCi/well of [^3H] uracil (Moravek Biochemicals Inc., Brea, CA, USA) was applied to each microculture for further 18–20 h. The amount of the isotope incorporated into the parasite nucleic acid pool, corresponding to the parasite growth, was measured by liquid scintillation counting with 1450 Microbeta Plus Liquid Scintillation Counter (Wallac Oy, Turku, Finland). The cpms of host cells alone (below 250/microculture) were subtracted from cpms of T. gondii infected microcultures (Dzitko et al. [2014]).
# mouse L929 fibroblast = experiment: Cell viability assay (MTT), L929; assay type: cell-based; conditions: 24 h; for CC30 L929: concentration for 30% proliferation inhibition
# Method: as §1, §2, §3
smiles,measurement,setting,value
"C/C(=N\Nc1nc(-c2ccc([N+](=O)[O-])cc2)cs1)c1ccc(Nc2nc(N)nc(N)n2)cc1 [Compound 4h, (E)-N^2-(4-(1-(2-(4-(4-nitrophenyl)-1,3-thiazol-2-yl)hydrazinylidene)ethyl)phenyl)-1,3,5-triazine-2,4,6-triamine]",CC30 VERO,VERO cells,>125.0 µg/mL
same,activity at 0.9 µg/mL,[1]; 0.9 µg/ml,103%
same,activity at 1.8 µg/mL,[1]; 1.8 µg/ml,105%
same,activity at 3.9 µg/mL,[1]; 3.9 µg/ml,113%
same,activity at 7.8 µg/mL,[1]; 7.8 µg/ml,101%
same,activity at 15.6 µg/mL,[1]; 15.6 µg/ml,85.7%
same,activity at 31.2 µg/mL,[1]; 31.2 µg/ml,77.5%
same,activity at 62.5 µg/mL,[1]; 62.5 µg/ml,74%
same,activity at 125 µg/mL,[1]; 125.0 µg/ml,39.4%
same,IC50,[1]; GraphPad Prism curves,119 µg/mL
same,CC30 L929,mouse L929 fibroblast,>125.0 µg/mL
"C/C(=N\Nc1nc(-c2ccc(Cl)cc2)cs1)c1ccc(Nc2nc(N)nc(N)n2)cc1 [Compound 4b, (E)-N^2-(4-(1-(2-(4-(4-chlorophenyl)-1,3-thiazol-2-yl)hydrazinylidene)ethyl)phenyl)-1,3,5-triazine-2,4,6-triamine]",CC30 VERO,VERO cells,>125.0 µg/mL
same,activity at 0.9 µg/mL,[1]; 0.9 µg/ml,100%
same,activity at 1.8 µg/mL,[1]; 1.8 µg/ml,106%
same,activity at 3.9 µg/mL,[1]; 3.9 µg/ml,101%
same,activity at 7.8 µg/mL,[1]; 7.8 µg/ml,98.2%
same,activity at 15.6 µg/mL,[1]; 15.6 µg/ml,74.6%
same,activity at 31.2 µg/mL,[1]; 31.2 µg/ml,52.2%
same,activity at 62.5 µg/mL,[1]; 62.5 µg/ml,26.1%
same,activity at 125 µg/mL,[1]; 125.0 µg/ml,14.7%
same,IC50,[1]; GraphPad Prism curves,33 µg/mL
same,CC30 L929,mouse L929 fibroblast,>125.0 µg/mL
"C/C(=N\Nc1nc(-c2ccc(Cl)c(Cl)c2)cs1)c1ccc(Nc2nc(N)nc(N)n2)cc1 [Compound 4i, (E)-N^2-(4-(1-(2-(4-(3,4-dichlorophenyl)-1,3-thiazol-2-yl)hydrazinylidene)ethyl)phenyl)-1,3,5-triazine-2,4,6-triamine]",CC30 VERO,VERO cells,>62.5 µg/mL
same,activity at 0.9 µg/mL,[1]; 0.9 µg/ml,101%
same,activity at 1.8 µg/mL,[1]; 1.8 µg/ml,102%
same,activity at 3.9 µg/mL,[1]; 3.9 µg/ml,79%
same,activity at 7.8 µg/mL,[1]; 7.8 µg/ml,55.9%
same,activity at 15.6 µg/mL,[1]; 15.6 µg/ml,45.7%
same,activity at 31.2 µg/mL,[1]; 31.2 µg/ml,41.1%
same,IC50,[1]; GraphPad Prism curves,14.9 µg/mL
same,CC30 L929,mouse L929 fibroblast,>62.5 µg/mL
"C/C(=N\Nc1nc(-c2cc3ccccc3oc2=O)cs1)c1ccc(Nc2nc(N)nc(N)n2)cc1 [Compound 4f, (E)-3-(2-(2-(1-(4-(4,6-diamino-1,3,5-triazin-2-yloamino)phenyl)ethylidene)hydrazinyl)thiazol-4-yl)-2H-chromen-2-on]",Viability VERO,VERO cells; 0.9 µg/ml,97.81%
same,Viability VERO,VERO cells; 1.8 µg/ml,100.84%
same,Viability VERO,VERO cells; 3.9 µg/ml,104.30%
same,Viability VERO,VERO cells; 7.8 µg/ml,104.39%
same,Viability VERO,VERO cells; 15.6 µg/ml,108.19%
same,Viability VERO,VERO cells; 31.2 µg/ml,117.52%
same,Viability VERO,VERO cells; 62.5 µg/ml,103.77%
same,Viability VERO,VERO cells; 125.0 µg/ml,111.27%
same,CC30 VERO,VERO cells,>125.0 µg/mL
same,T. gondii intracellular proliferation,[1]; 0.9 µg/ml,101.02%
same,T. gondii intracellular proliferation,[1]; 1.8 µg/ml,98.89%
same,T. gondii intracellular proliferation,[1]; 3.9 µg/ml,75.89%
same,T. gondii intracellular proliferation,[1]; 7.8 µg/ml,64.30%
same,T. gondii intracellular proliferation,[1]; 15.6 µg/ml,55.65%
same,T. gondii intracellular proliferation,[1]; 31.2 µg/ml,50.52%
same,T. gondii intracellular proliferation,[1]; 62.5 µg/ml,37.17%
same,T. gondii intracellular proliferation,[1]; 125.0 µg/ml,14.03%
same,IC50 (50% inhibition of T. gondii proliferation in vitro),[1]; GraphPad Prism curves,21.53 µg/mL
same,Viability L929,mouse L929 fibroblast; 0.9 µg/ml,98.99%
same,Viability L929,mouse L929 fibroblast; 1.8 µg/ml,102.21%
same,Viability L929,mouse L929 fibroblast; 3.9 µg/ml,101.95%
same,Viability L929,mouse L929 fibroblast; 7.8 µg/ml,96.25%
same,Viability L929,mouse L929 fibroblast; 15.6 µg/ml,100.89%
same,Viability L929,mouse L929 fibroblast; 31.2 µg/ml,104.60%
same,Viability L929,mouse L929 fibroblast; 62.5 µg/ml,109.54%
same,Viability L929,mouse L929 fibroblast; 125.0 µg/ml,108.66%
same,CC30 L929,mouse L929 fibroblast,>125.0 µg/mL
"C/C(=N\Nc1nc(-c2ccc(Br)cc2)cs1)c1ccc(Nc2nc(N)nc(N)n2)cc1 [Compound 4d, (E)-N^2-(4-(1-(2-(4-(4-bromophenyl)-1,3-thiazol-2-yl)hydrazinylidene)ethyl)phenyl)-1,3,5-triazine-2,4,6-triamine]",CC30 VERO,VERO cells,>125.0 µg/mL
same,activity at 0.9 µg/mL,[1]; 0.9 µg/ml,102%
same,activity at 1.8 µg/mL,[1]; 1.8 µg/ml,104%
same,activity at 3.9 µg/mL,[1]; 3.9 µg/ml,102%
same,activity at 7.8 µg/mL,[1]; 7.8 µg/ml,106%
same,activity at 15.6 µg/mL,[1]; 15.6 µg/ml,75.2%
same,activity at 31.2 µg/mL,[1]; 31.2 µg/ml,62.8%
same,activity at 62.5 µg/mL,[1]; 62.5 µg/ml,29.3%
same,activity at 125 µg/mL,[1]; 125.0 µg/ml,15.1%
same,IC50,[1]; GraphPad Prism curves,37.8 µg/mL
same,CC30 L929,mouse L929 fibroblast,>125.0 µg/mL
